Assay results as given in US5436252A, “5-aryl-3H-1,2,4-triazol-3-ones and their use in the treatment of neurodegenerative disorders” (Merrell Dow Pharmaceuticals Inc., priority 1990, dated 1995).
Like-named read-outs stand apart in the source and are kept apart here.

Columns and labels:
[1] = Antagonism of Quinolinic Acid Induced Seizures (clonic-tonic seizures after icv quinolinic acid); type: in vivo, mice; conditions: for ED50 / responders at 64 mg/kg: Mus musculus; for responders at 64 mg/kg: 64 mg/Kg IP, animals protected/tested, quinolinic acid 7.7 μg icv, read-out: Mice Protected 64 mg/Kg IP
[2] = gerbils; background; cited from earlier work
[3] = mice; background; cited from earlier work
[4] = Hippocampal neurodegeneration after carotid artery occlusion (CA1 damage score); type: in vivo, Male mongolian gerbils
Source text: Male mongolian gerbils (Tumblebrook Farms) weighing 45 to 60 gms were used for the experiments measuring hippocampal neurodegeneration after carotid artery occlusion. The gerbils were housed in small groups and allowed ad lib access to food and water prior to surgery. Following administration of drug, the gerbils were anesthetized with halothane (3.5%) and prepared for surgery.
An incision was made in the midline region of the neck and both carotid arteries were exposed and isolated from surrounding tissue. In sham operated animals the wounds were then closed and the animals were allowed to recover. In the hypoxic group the isolated carotid arteries were occluded for 5 minutes with 7 mm Mayfield aneurysm clips. Loss of blood flow to the cortex was confirmed by observation with an opthalmoscope of the blanching of the radial arteries in the retina of the ipsilateral eye. After 5 minutes the clips were removed and the gerbils were placed in their home cages and allowed to recover. After 7 days the gerbils were sacrificed by an overdose of chloral hydrate and perfused intracardially with 10 ml of 1% […] followed by 15 ml of 10% buffered formalin. […] Damage to the CA1 region was assessed by 3 observers who were blind to the previous treatment of the gerbil. This damage was assessed according to the scale below. […]

[5] = administration to rodents; background; cited from earlier work
[6] = 0.5 h, IP, 30', read-out: ED50 IP

## CCn1nc(-c2cccs2)n(C)c1=O [2-Thienyl, C2 H5, CH3, 5-(2-thienyl)-2,4-dihydro-2-ethyl-4-methyl-3H-1,2,4-triazol-3-one]
[1]; IP, range, time not given, printed near the Mice Protected column, read-out: ED50 IP
  ED50: 8 to 64 mg/kg

## Cn1c(-c2ccncc2)n[nH]c1=O [4-Pyridyl, H, CH3, 2,4-Dihydro-4-methyl-5-(4-pyridinyl)-3H-1,2,4-triazol-3-one]
[1]
  responders at 64 mg/kg: 30%

## Cn1nc(-c2ccccc2)n(C)c1=O [C6 H5, CH3, CH3]
[1]
  responders at 64 mg/kg: 50%

## COc1ccc(-c2nn(C)c(=O)n2C)cc1OC1CCCC1
[1]
  responders at 64 mg/kg: 60%

## C[C@]12N[C@H](Cc3ccccc31)c1ccccc12 [MK-801, (S)-10,11-dihydro-5-methyl-5H-dibenzo(a,d)cyclohepten-5,10-imine]
[2]
  antagonism of hippocampal neurodegeneration (in words): antagonize hippocampal neurodegeneration after carotid artery occlusion in gerbils
[3]
  antagonism of quinolinic acid seizures (in words): antagonize the seizures induced in mice by quinolinic acid
[4]; 5 mg/kg, 30 minutes prior to ligation
  reduction of apparent damage: 28%

## CCn1c(-c2ccc(Cl)cc2)nn(C)c1=O [4-ClC6 H4, CH3, C2 H5, 5-(4-Chlorophenyl)-2,4-dihydro-4-ethyl-2-methyl-3H-1,2,4-triazol-3-one]
[1]; [6]
  ED50: 25.9 mg/kg
[1]; 0.5 h, PO, 30', read-out: ED50 PO
  ED50: 29.9 mg/kg
[1]; 1 h, IP, 60', read-out: ED50 IP
  ED50: 17.2 mg/kg
[1]; IP, 2 hr, read-out: ED50 IP
  ED50: 39.2 mg/kg
[1]; PO, 4 hr, read-out: ED50 PO
  ED50: 52.3 mg/kg
[1]; PO, 24 hr, read-out: ED50 PO
  ED50: > 128 mg/kg
[4]; 40 mg/kg i.p.
  reduction of damage: 66%

## CCn1c(-c2ccc(Cl)cc2)n[nH]c1=O [4-ClC6 H4, H, C2 H5, 5-(4-Chlorophenyl)2,4-dihydro-4-ethyl-3H-1,2,4-triazol-3-one]
[1]; [6]
  ED50: 51 mg/kg

## O=C(O)c1cccnc1C(=O)O [quinolinic acid, reference compound]
[1]; 7.7 μg in 5 μl saline icv
  clonic-tonic seizures caused in otherwise untreated mice: 90-100%
[5]
  neuronal degeneration (in words): shown to cause neuronal degeneration

## CCn1nc(-c2ccccc2)n(C)c1=O [C6 H5, C2 H5, CH3]
[1]
  responders at 64 mg/kg: 50%

## C=C(C)[C@H]1CN[C@H](C(=O)O)[C@H]1CC(=O)O [kainic acid]
[5]
  neuronal degeneration (in words): shown to cause neuronal degeneration

## Cn1c(-c2ccccc2Cl)n[nH]c1=O [2-ClC6 H4, H, CH3, 5-(2-chlorophenyl)-2,4-dihydro-4-methyl-3H-1,2,4-triazol-3-one]
[1]; [6]
  ED50: 64.9 mg/kg
[1]
  responders at 64 mg/kg: 60%
[1]; IP, 2 hr, read-out: ED50 IP
  ED50: > 64 mg/kg

## Cn1nc(-c2ccc(Cl)cc2)n(C)c1=O [4-ClC6 H4, CH3, CH3, 5-(4-chlorophenyl)-2,4-dihydro-2,4-dimethyl-3H-1,2,4-triazol-3-one]
[1]
  responders at 64 mg/kg: 80%

## CCCCOc1cc(-c2nn(C)c(=O)n2C)ccc1OC [3-(n-C4 H9 O)--4-CH3 OC6 H3, CH3, CH3]
[1]
  responders at 64 mg/kg: 60%

## Cn1c(-c2ccccc2)n[nH]c1=O [C6 H5, H, CH3]
[1]
  responders at 64 mg/kg: 50%

## Cn1nc(-c2ccccc2Cl)n(C)c1=O [2-ClC6 H4, CH3, CH3]
[1]
  responders at 64 mg/kg: 60%

## CCCCOc1cc(-c2n[nH]c(=O)n2C)ccc1OC [3-(n-C4 H9 O)--4-CH3 OC6 H3, H, CH3, 5-[3-(n-butoxy)-4-methoxyphenyl]-2,4-dihydro-4-methyl-3H-1,2,4-triazol-3-one]
[1]
  responders at 64 mg/kg: 70%

## COc1ccc(-c2n[nH]c(=O)n2C)cc1OC1CCCC1 [3-(cyclo-C5 H9 O)--4-CH3 OC6 H3, H, CH3]
[1]
  responders at 64 mg/kg: 20%

## Cn1c(-c2ccc(Cl)c(Cl)c2)n[nH]c1=O [3,4-Cl2 C6 H3, H, CH3, 5-(3,4-dichlorophenyl)-2,4-dihydro-4-methyl-3H-1,2,4-triazol-3-one]
[1]; @ 32 mg/Kg IP, (60')
  Mice Protected: 5/10
[1]; [6]
  ED50: < 8 mg/kg
[1]; PO, time not given, read-out: ED50 PO
  ED50: > 16 mg/kg

## Cn1c(-c2ccc(Cl)cc2)n[nH]c1=O [4-ClC6 H4, H, CH3]
[1]
  responders at 64 mg/kg: 60%

## N[C@@H](Cn1oc(=O)[nH]c1=O)C(=O)O [quisqualic acid]
[5]
  neuronal degeneration (in words): shown to cause neuronal degeneration
